In series [1] the test system is PBMCs from psoriasis patients and healthy subjects. As to the kind of experiment: Cell apoptosis/necrosis, FITC-Annexin V/PI flow cytometry, PBMCs. In kind it is cell-based, human. Particulars: 48 h exposure; for proportions of PBMCs with early apoptosis, psoriasis patients compared with healthy volunteers: both concentrations. For orientation: A flow cytometer gives signals particle by particle.

For series [2], the target named is recombinant human CYP2C19 (Homo sapiens, UniProt P33261). As to the kind of experiment: P450-Glo bioluminescent CYP450 inhibition assay. In kind it is in vitro ADME.
Another series concerns IL-23A mRNA. As to the kind of experiment: Pro-inflammatory cytokine mRNA expression. In kind it is cell-based, human. Particulars: PBMCs from psoriasis patients vs healthy subjects, 48 h.
In the next series the test system is IL-6 mRNA. The series can be described thus: Pro-inflammatory cytokine mRNA expression. In kind it is cell-based, human. Particulars: PBMCs from psoriasis patients vs healthy subjects; 48 h; IC50.
In a further series the target is recombinant human CYP3A4 (Homo sapiens, UniProt P08684). As to the kind of experiment: P450-Glo bioluminescent CYP450 inhibition assay. In kind it is in vitro ADME.
In another series the target is recombinant human CYP2D6 (Homo sapiens, UniProt P10635). As to the kind of experiment: P450-Glo bioluminescent CYP450 inhibition assay.
The next series addresses T1, recombinant human CYP1A2 (Homo sapiens, UniProt P05177).
T1 sequence (P05177 1-516): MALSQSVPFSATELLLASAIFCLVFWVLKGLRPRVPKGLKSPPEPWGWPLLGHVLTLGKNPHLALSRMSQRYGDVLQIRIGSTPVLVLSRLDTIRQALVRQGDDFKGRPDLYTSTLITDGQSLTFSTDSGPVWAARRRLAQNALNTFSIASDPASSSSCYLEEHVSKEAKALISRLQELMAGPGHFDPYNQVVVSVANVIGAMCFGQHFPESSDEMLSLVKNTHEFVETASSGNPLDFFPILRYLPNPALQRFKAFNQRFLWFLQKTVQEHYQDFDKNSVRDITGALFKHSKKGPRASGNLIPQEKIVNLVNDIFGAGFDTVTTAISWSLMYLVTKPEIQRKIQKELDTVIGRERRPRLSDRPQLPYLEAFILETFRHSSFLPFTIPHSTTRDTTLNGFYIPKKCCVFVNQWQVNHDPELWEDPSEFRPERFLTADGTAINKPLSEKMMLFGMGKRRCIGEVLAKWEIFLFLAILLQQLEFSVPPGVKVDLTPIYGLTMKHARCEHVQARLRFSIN
As to the kind of experiment: P450-Glo bioluminescent CYP450 inhibition assay. In kind it is in vitro ADME.

Series [3] concerns PBMCs (from healthy subjects). The series can be described thus: MTT cell proliferation assay, PBMCs. In kind it is cell-based, human.
The next series deals with IL-12p19 mRNA. As to the kind of experiment: Pro-inflammatory cytokine mRNA expression. Particulars: PBMCs from psoriasis patients vs healthy subjects. In kind it is cell-based, human.
Another series has as its system HaCaT cells. As to the kind of experiment: MTT cell proliferation assay, HaCaT. Particulars: 48 h, median (range). In kind it is cell-based, human. For orientation: Tetrazolium assays rely on reduction of a dye to a coloured formazan, in cell work by metabolically active cells.
The target in the next series is recombinant human CYP2C9 (Homo sapiens, UniProt P11712). The series can be described thus: P450-Glo bioluminescent CYP450 inhibition assay.
In series [4] the test system is PBMCs from psoriasis patients and healthy subjects. The series can be described thus: Cell cycle analysis by flow cytometry. In kind it is cell-based, human. The following applies: PBMCs from patients with psoriasis; 24 h; both concentrations.
The subject of the next series is TNF-α mRNA. The series can be described thus: Pro-inflammatory cytokine mRNA expression. In kind it is cell-based, human. The following applies: PBMCs from psoriasis patients vs healthy subjects; 48 h; IC25.
Where [5] appears, read: read-out: CYP2C19 IC50, median (range), unit of the reference inhibitor.
Setting [6] is: read-out: CYP2C19 inhibitory potency class, class by IC50.
[7] abbreviates: read-out: CYP3A4 IC50, median (range), unit of the reference inhibitor.
Where [8] appears, read: read-out: CYP3A4 inhibitory potency class, class by IC50.
The mark [9] stands for this setting: read-out: CYP2D6 IC50, median (range), unit of the reference inhibitor.
Where [10] appears, read: read-out: CYP2D6 inhibitory potency class, class by IC50.
The mark [11] stands for this setting: read-out: CYP1A2 IC50, median (range), unit of the reference inhibitor.
Where [12] appears, read: read-out: CYP1A2 inhibitory potency class, class by IC50.
The mark [13] stands for this setting: read-out: CYP2C9 IC50, median (range), unit of the reference inhibitor.
The mark [14] stands for this setting: read-out: CYP2C9 inhibitory potency class, class by IC50.

Several values for one entry are separate records, joined by “and”; a condition that tells them apart may be missing. Identical values can stand only once. Like-named read-outs stand apart in the source and are kept apart here.

Chain of recombinant human CYP2D6 (P10635 whole entry): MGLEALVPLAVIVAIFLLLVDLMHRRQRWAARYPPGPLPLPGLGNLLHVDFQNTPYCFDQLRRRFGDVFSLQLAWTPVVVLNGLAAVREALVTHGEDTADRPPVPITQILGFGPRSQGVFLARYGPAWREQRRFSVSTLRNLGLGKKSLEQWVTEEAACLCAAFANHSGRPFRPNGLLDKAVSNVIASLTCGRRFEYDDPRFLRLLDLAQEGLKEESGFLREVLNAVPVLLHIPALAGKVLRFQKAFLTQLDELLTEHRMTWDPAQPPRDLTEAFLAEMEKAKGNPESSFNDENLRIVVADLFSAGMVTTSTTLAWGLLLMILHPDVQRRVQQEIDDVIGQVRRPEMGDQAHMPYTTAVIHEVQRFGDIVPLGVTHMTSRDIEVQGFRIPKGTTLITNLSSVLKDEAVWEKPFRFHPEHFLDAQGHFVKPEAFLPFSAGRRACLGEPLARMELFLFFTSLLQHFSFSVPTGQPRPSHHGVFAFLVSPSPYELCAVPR
Chain of recombinant human CYP2C19 (P33261 whole entry): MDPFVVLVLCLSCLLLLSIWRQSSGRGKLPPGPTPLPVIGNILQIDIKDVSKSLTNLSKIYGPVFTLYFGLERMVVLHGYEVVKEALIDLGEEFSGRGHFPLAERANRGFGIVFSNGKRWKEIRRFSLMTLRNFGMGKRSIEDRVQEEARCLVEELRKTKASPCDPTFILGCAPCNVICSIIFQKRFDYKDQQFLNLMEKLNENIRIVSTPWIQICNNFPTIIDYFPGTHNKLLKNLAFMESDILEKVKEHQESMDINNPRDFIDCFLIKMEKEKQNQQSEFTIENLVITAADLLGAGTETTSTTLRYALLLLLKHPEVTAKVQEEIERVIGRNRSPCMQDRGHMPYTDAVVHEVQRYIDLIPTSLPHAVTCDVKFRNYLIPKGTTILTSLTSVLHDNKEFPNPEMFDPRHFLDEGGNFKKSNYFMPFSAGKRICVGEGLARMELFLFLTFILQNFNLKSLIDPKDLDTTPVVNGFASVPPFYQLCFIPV
Chain of recombinant human CYP3A4 (P08684 whole entry): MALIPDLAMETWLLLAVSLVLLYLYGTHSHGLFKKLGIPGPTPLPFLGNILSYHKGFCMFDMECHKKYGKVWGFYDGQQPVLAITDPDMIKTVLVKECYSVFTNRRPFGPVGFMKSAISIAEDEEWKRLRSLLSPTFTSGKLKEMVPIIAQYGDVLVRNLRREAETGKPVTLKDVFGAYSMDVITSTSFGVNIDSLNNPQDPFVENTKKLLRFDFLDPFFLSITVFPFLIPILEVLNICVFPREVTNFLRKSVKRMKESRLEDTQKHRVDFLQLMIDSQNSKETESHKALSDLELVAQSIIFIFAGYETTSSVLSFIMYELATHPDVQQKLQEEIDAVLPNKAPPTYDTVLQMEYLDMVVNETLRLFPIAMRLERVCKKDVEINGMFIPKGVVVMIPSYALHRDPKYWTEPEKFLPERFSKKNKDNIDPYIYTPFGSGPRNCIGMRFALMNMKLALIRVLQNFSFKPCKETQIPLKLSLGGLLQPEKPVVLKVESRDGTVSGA
Chain of recombinant human CYP2C9 (P11712 whole entry): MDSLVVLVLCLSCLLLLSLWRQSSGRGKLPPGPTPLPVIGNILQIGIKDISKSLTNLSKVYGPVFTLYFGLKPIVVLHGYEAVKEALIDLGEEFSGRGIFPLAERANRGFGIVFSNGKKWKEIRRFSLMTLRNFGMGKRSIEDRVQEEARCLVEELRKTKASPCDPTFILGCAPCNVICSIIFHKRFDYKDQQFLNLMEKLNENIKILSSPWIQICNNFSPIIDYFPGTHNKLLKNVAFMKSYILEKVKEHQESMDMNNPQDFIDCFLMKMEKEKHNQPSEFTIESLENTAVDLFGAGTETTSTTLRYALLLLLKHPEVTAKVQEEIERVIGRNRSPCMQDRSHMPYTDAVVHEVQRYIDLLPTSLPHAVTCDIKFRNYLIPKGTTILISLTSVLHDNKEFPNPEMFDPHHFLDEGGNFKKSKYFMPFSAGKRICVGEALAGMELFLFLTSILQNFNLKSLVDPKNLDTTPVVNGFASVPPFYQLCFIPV

As to `CCOC(=O)C=Cc1ccc(OC)cc1` [EPMC, ethyl-p-methoxycinnamate], in series [1], the “proportions of PBMCs with early apoptosis, psoriasis patients compared with healthy volunteers” value was “significantly lower”. For the same molecule, the IC50 in [2] (setting [5]) was 80.4 µM; in series [2] (setting [6]), over 50 µM; on recombinant human CYP3A4 (setting [7]), 865 µM; at recombinant human CYP3A4 (setting [8]), over 50 µM; on recombinant human CYP2D6 (setting [9]) it was 17.8 µM; on recombinant human CYP2D6 (setting [10]) it was 10 to 50 µM. Also, the IC50 is 118 µM on recombinant human CYP1A2 (setting [11]); over 50 µM at recombinant human CYP1A2 (setting [12]); 306 µM and 305 µM in [3] (read-out: PBMCs IC50, 48 h, median (range)); 554 µM in the series with HaCaT cells (read-out: HaCaT IC50, MTT); 87.5 µM at recombinant human CYP2C9 (setting [13]); over 50 µM on recombinant human CYP2C9 (setting [14]). In the series with IL-23A mRNA (IC50), the “IL-23A mRNA expression” value is “reduced”. Besides, in the series on IL-6 mRNA, the “IL-6 mRNA expression” value is recorded as “reduced”. The “CYP2D6 inhibitory potency class” value on recombinant human CYP2D6 (class by IC50) was “moderately inhibited”. Besides, the “PBMCs IC25” value in series [3] (48 h, median (range)) is given as 254 (234-258) μM. Also, the “PBMCs IC50” value in [3] (48 h, median (range)) was 63.09 µg/mL. Also, the “IL-12p19 mRNA expression” value in the series with IL-12p19 mRNA (24 h, only at IC50) is on record as “downregulating”. In addition, the “HaCaT IC25” value in the series on HaCaT cells (MTT) is recorded as 432 (395-458) μM. Moreover, the “HaCaT IC50” value in the series with HaCaT cells (MTT) turned out to be 114.25 µg/mL.

Consider `COc1cc(/C=C/C(=O)O)ccc1O` [Ferulic acid, ferulic acid], for which the IC50 in [2] (setting [5]) is 1450 µM; in [2] (setting [6]), over 50 µM; on recombinant human CYP3A4 (setting [7]), 1150 µM; on recombinant human CYP3A4 (setting [8]) it was over 50 µM; on recombinant human CYP2D6 (setting [9]), 11.4 µM; at recombinant human CYP2D6 (setting [10]), 10 to 50 µM. In addition, the IC50 was 5250 µM at recombinant human CYP1A2 (setting [11]), over 50 µM on recombinant human CYP1A2 (setting [12]), 469 µM at recombinant human CYP2C9 (setting [13]) and over 50 µM at recombinant human CYP2C9 (setting [14]). For the same molecule, the “CYP2D6 inhibitory potency class” value at recombinant human CYP2D6 (class by IC50) is “moderately inhibited”.

For the molecule `CCC/C=C1\OC(=O)C2=C1CCC=C2` [Ligustilide, ligustilide], the “proportions of living PBMCs from psoriasis patients compared with PBMCs from healthy volunteers” value in [1] was “significantly higher”. The “proportions of PBMCs with early apoptosis, psoriasis patients compared with healthy volunteers” value in series [1] was “significantly lower”. In [4], the “phase of cell cycle arrest” value is “S phase”. In addition, the IC50 in series [2] (CYP2C19 IC50, median (range), unit of the reference inhibitor) is 89.2 µM; in [2] (CYP2C19 inhibitory potency class, class by IC50), over 50 µM; at recombinant human CYP3A4 (CYP3A4 IC50, median (range), unit of the reference inhibitor), 39.8 µM; on recombinant human CYP3A4 (CYP3A4 inhibitory potency class, class by IC50) it was 10 to 50 µM; at recombinant human CYP2D6 (CYP2D6 IC50, median (range), unit of the reference inhibitor), 218 µM; at recombinant human CYP2D6 (CYP2D6 inhibitory potency class, class by IC50) it was over 50 µM. The IC50 was 10 to 50 µM on recombinant human CYP1A2; 188 µM and 35.8 µg/mL in the series on HaCaT cells (Homo sapiens, HaCaT, read-out: HaCaT IC50, MTT, 48 h); 114 µM at recombinant human CYP2C9 (CYP2C9 IC50, median (range), unit of the reference inhibitor); over 50 µM at recombinant human CYP2C9 (CYP2C9 inhibitory potency class, class by IC50). In addition, the “IL-23A mRNA expression” value with IL-23A mRNA (IC25) is on record as “downregulated”. The “TNF-α mRNA expression” value in the series on TNF-α mRNA is “downregulated”. Moreover, the “IL-6 mRNA expression” value in the series on IL-6 mRNA is on record as “downregulating”. Besides, the “CYP3A4 inhibitory potency class” value on recombinant human CYP3A4 (class by IC50) is on record as “moderately inhibited”. The “CYP1A2 inhibitory potency class” value on recombinant human CYP1A2 (class by IC50) was “moderately inhibited”. Besides, the “PBMCs IC25” value in series [3] (48 h, median (range)) is on record as 105 (101-106) μM. Besides, in the series on IL-12p19 mRNA (48 h, IC25), the “IL-12p19 mRNA expression” value is “downregulated”. Moreover, the “HaCaT IC25” value in the series on HaCaT cells (MTT) was 151 (138-155) μM.

Values taken from PMC10413907 (Journal of Evidence-based Integrative Medicine, 2023).
